For data set [1], the system named is Mus musculus. The experiment in a line: Toxicity in ICR mouse assessed as CB1-mediated stretching the without moving at 0.1 to 1 mg/kg, iv after 15 mins. Type of data set: organism-based. Also noted: dose 0.1-1 mg/kg, route intravenous. Conditions: in vivo, 0.25 h.
Data set [2] concerns Mus musculus. In words: Toxicity in ICR mouse assessed as CB1-mediated moving sluggishly at 0.1 to 1 mg/kg, iv after 15 mins. It counts as organism-based. Also noted: dose 0.1-1 mg/kg, route intravenous. Conditions: in vivo, 0.25 h.
Data set [3] concerns Mus musculus. The experiment in a line: Toxicity in ICR mouse assessed as CB1-induced catalepsy at 0.1 to 1 mg/kg, iv after 15 mins. It counts as organism-based. Also noted: dose 0.1-1 mg/kg, route intravenous. The following applies: in vivo, 0.25 h.
The subject of data set [4] is Mus musculus. The experiment in a line: Toxicity in ICR mouse assessed as CB1-mediated spasm, rigor at 0.1 to 1 mg/kg, iv after 15 mins. It counts as organism-based. Also noted: dose 0.1-1 mg/kg, route intravenous. The following applies: in vivo, 0.25 h.
The test system of data set [5] is Mus musculus. In words: Toxicity in ICR mouse assessed as CB1-mediated walking with lying on the belly at 0.1 to 1 mg/kg, iv after 15 mins. More on the design: dose 0.1-1 mg/kg, route intravenous. Type of data set: organism-based. The following applies: in vivo, 0.25 h.
Data set [6] has as its target Cannabinoid receptor 2 (Homo sapiens, UniProt P34972). The experiment in a line: Displacement of [3H]-CP55940 from recombinant human CB2 receptor by scatchard plot analysis.
In data set [7] the target is Cannabinoid receptor 1 (Homo sapiens, UniProt P21554). In words: Displacement of [3H]-CP55940 from recombinant human CB1 receptor by scatchard plot analysis. (In general: Displacement assays read how much labelled ligand stays bound in the presence of the test substance.)
Cannabinoid receptor 1, sequence (P21554 whole entry): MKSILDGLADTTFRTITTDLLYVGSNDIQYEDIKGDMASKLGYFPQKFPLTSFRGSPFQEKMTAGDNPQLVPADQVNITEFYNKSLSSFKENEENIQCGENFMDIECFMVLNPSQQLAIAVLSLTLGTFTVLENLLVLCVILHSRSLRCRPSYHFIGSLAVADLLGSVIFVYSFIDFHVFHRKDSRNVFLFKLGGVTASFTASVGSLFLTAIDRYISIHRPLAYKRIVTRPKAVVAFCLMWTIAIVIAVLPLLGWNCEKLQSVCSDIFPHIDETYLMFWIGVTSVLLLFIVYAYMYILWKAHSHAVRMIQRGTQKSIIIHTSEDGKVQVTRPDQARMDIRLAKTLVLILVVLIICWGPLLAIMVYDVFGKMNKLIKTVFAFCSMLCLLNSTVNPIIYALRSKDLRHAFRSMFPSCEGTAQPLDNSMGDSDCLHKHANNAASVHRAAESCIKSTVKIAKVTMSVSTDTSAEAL
Data set [8] is described as follows: Ratio of drug level in brain to plasma in rat. Conditions: read-out: BPR. Type of data set: ADME.
The test system of data set [9] is Mus musculus. In words: Antipruritic activity in Crj:CD1 ICR mouse pruritic model assessed as inhibition of compound 48/80-induced scratching compound topically applied on the shaved back 15 mins prior challenge measured for 30 mins relative to control. Type of data set: functional.

Consider 16 compounds from ChEMBL document CHEMBL2016558, “CB 1/2 dual agonists with 3-carbamoyl 2-pyridone derivatives as antipruritics: reduction of CNS side effects by introducing polar functional groups” (Bioorg Med Chem Lett, 2012).

Cannabinoid receptor 2, sequence (P34972 whole entry): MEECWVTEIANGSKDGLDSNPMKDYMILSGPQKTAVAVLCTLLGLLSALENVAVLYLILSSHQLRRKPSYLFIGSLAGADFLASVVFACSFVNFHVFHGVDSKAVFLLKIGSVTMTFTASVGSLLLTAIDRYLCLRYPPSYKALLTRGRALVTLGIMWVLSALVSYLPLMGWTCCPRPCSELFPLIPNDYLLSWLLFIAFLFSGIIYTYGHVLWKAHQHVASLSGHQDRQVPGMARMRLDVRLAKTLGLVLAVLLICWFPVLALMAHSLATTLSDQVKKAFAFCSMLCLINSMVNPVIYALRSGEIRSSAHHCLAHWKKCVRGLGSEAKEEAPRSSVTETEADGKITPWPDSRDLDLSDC

For `CC(C)(NC(=O)c1cc2c(n(CC3CCCCC3)c1=O)CCCCCC2)C(=O)NCC(N)=O`, the Activity entry in data set [1], in [2], in [3], in data set [4] and in data set [5] was “Toxic” throughout.
With `CN(C)CCNC(=O)C(C)(C)NC(=O)c1cc2c(n(CC3CCCCC3)c1=O)CCCCCC2`, the Ki in [6] worked out at 81 nM; in data set [7] it was 242 nM.
Turning to `CC(C)(NC(=O)c1cc2c(n(CC3CCCCC3)c1=O)CCCCCC2)C(=O)N1CCC(O)CC1`, the Activity entry in [1], in [2], in data set [3], in [4] and in [5] was “Toxic” in each case. Moreover, the figures for the Ki in data set [6] and in [7] were 1.1 nM and 8 nM, respectively.
Consider `CC(C)(NC(=O)c1cc2c(n(CC3CCCCC3)c1=O)CCCCCC2)C(=O)NCC(=O)O`, for which the Ki in [6] is 2820 nM; in data set [7] it was greater than 5000 nM.
On to `CC(=O)NCCNC(=O)C(C)(C)NC(=O)c1cc2c(n(CC3CCCCC3)c1=O)CCCCCC2`, for which the Activity result in data set [1], in data set [2], in data set [3], in data set [4] and in [5] was “Toxic” each time. Besides, the Ki in [6] was found to be 2.5 nM; in data set [7] it was 4.7 nM.
`CC(C)(NC(=O)c1cc2c(n(CC3CCCCC3)c1=O)CCCCCC2)C(=O)NCCCO`: the Activity entry in data set [1], in [2], in data set [3], in [4] and in data set [5] was “Toxic” in each case. Besides, the values for the inhibition constant (Ki) in data set [6] and in data set [7] were 1 nM and 6.3 nM, respectively.
On to `CC(C)(NC(=O)c1cc2c(n(CC3CCCCC3)c1=O)CCCCCC2)C(=O)N1CCC(NS(C)(=O)=O)CC1`, for which the Activity result in data set [1], in [2], in data set [3], in data set [4] and in data set [5] was “Non-toxic” in each case.
With `CN(CCO)C(=O)C(C)(C)NC(=O)c1cc2c(n(CC3CCCCC3)c1=O)CCCCCC2`, the Activity entry in data set [1], in data set [2], in data set [3], in data set [4] and in [5] was “Toxic” throughout. Also, the Kp in [8] is 0.28. For the same compound, the Ki in [6] came to 0.6 nM.
For `CC(C)(NC(=O)c1cc2c(n(CC3CCCCC3)c1=O)CCCCCC2)C(=O)NCCCCCO`, the Activity entry in data set [1], in data set [2], in data set [3], in data set [4] and in [5] was “Toxic” throughout. Further, the Ki came out at 1.2 nM in [6] and 5.8 nM in data set [7].
For `COC(=O)C(C)(C)NC(=O)c1cc2c(n(CC3CCCCC3)c1=O)CCCCCC2`, the Activity result in data set [1], in [2], in [3], in data set [4] and in [5] was “Toxic” each time. In [8], the Kp stood at 3.35. Moreover, the Ki in data set [6] turned out to be 0.3 nM; in [7], 1.7 nM.
As for `CC(C)(NC(=O)c1cc2c(n(CC3CCCCC3)c1=O)CCCCCC2)C(=O)NNS(C)(=O)=O`, the Activity entry in data set [1], in data set [2], in data set [3], in [4] and in data set [5] was “Non-toxic” in each case. Moreover, the Kp in data set [8] came to 0.02. In addition, the Ki was 7.3 nM in data set [6] and 32 nM in data set [7]. In addition, the “inhibition (INH)” value in data set [9] was 87%.
For `CC(C)(NC(=O)c1cc2c(n(CC3CCCCC3)c1=O)CCCCCC2)C(=O)NCCOCCO`, the Activity result in data set [1], in [2], in data set [3], in [4] and in data set [5] was “Toxic” throughout. The Ki in data set [6] stood at 0.6 nM; in data set [7] it was 3.4 nM.
With `CC(C)(NC(=O)c1cc2c(n(CC3CCCCC3)c1=O)CCCCCC2)C(=O)N1CCC(C(=O)O)CC1`, the Ki in data set [6] worked out at 377 nM; in data set [7], 2970 nM.
Take `CC(C)(NC(=O)c1cc2c(n(CC3CCCCC3)c1=O)CCCCCC2)C(=O)NN`: the Activity result in data set [1], in [2], in data set [3], in [4] and in data set [5] was “Toxic” each time. The figures for the Ki in data set [6] and in data set [7] were 2.8 nM and 30 nM, respectively.
With `CC(C)(NC(=O)c1cc2c(n(CC3CCCCC3)c1=O)CCCCCC2)C(=O)N1CCC(C(=O)NS(C)(=O)=O)CC1`, the Ki in [6] was 128 nM; in data set [7], 218 nM.
On to `CC(C)(NC(=O)c1cc2c(n(CC3CCCCC3)c1=O)CCCCCC2)C(=O)N1CCC(C(N)=O)CC1`, for which the Activity result in data set [1], in data set [2], in [3], in [4] and in [5] was “Toxic” throughout. Besides, the Ki in data set [6] was 3 nM; in data set [7], 4.9 nM.

One may read the Ki as a dissociation constant, usually derived from enzyme kinetics or from competition with a known ligand.
